Experimental data taken from patent publication US5602146A, “4-iminoquinolines, processes for their preparation, and their use” (Hoechst Aktiengesellschaft, priority 1992, dated 1997).
In brackets after ≈: the same amount, converted by molar mass. Values belong to the molecule of their own block, whether it stands above or below them.

Legend:
[1] = biological target: T1, HIV "Reverse Transcriptase" (Human immunodeficiency virus type 1 group M subtype B, UniProt P04585); test: Inhibition of HIV "Reverse Transcriptase" (Scintillation Proximity Assay); assay type: biochemical; conditions: RT-SPA, RT from HIV cloned in E. coli, 60 minutes (37° C.)
T1 construct: purchased HT-Biotechnology Ltd., Cambridge, UK; host or cells: E. coli
Description: Investigation of the substances for inhibition of HIV "Reverse Transcriptase"
The activity of reverse transcriptase (RT) was determined with the aid of a "Scintillation Proximity Assay" (SPA). The reagent kit for the RT-SPA was obtained from Amersham/Buchler (Braunschweig). The enzyme RT (from HIV cloned in E. coli) originated from HT-Biotechnology Ltd., Cambridge, UK.
The test was carried out in accordance with the method manual of the manufacturer Amersham--with the following modifications:
bovine serum albumin was added to the "assay" buffer to the final concentration of 0.5 mg/ml.
the test was carried out in Eppendorf reaction vessels with a batch volume of […].
the RT concentrate of the manufacturer (5000 U/ml) was diluted to an activity of 15 U/ml in tris-HCl buffer 20 mM; pH 7.2; 30% of glycerol.
the incubation time for the batches was 60 minutes (37° C.).
after the reaction had been stopped and after "development" with the bead suspension, […] of the batch were transferred to 4.5 ml of tris-HCl buffer, 10 mM; pH 7.4; 0.15M NaCl, and the tritium activity was measured in a β-counter.
Testing of the substances:
For a preliminary test of the inhibitor activity, the substances were dissolved in dimethyl sulfoxide (stock solution c=1 mg/ml) and tested in a dilution in dimethyl sulfoxide of 10^-1, 10^-2, 10^-3 and the like to determine IC50 values, the inhibitor stock solutions were further diluted in tris-HCl buffer, 50 mM, pH 8 and tested in suitable concentrations. The concentration associated with 50% enzyme inhibition was determined from the graph of RT activity against Log Cinh.

HIV = test: Testing of preparations against HIV in a cell culture (T-Cell culture assay); assay type: cell-based; conditions: Human immunodeficiency virus 1, 72 h; HIV-infected lymphocytes, 37° C. for 3 days; lowest concentration at which no giant cells occurred; read-out: T-Cell culture assay Minimum inhibitory concentration
Description: Testing of preparations against HIV in a cell culture
Description of the method
The complete medium additionally contains 20% of fetal calf serum and 40 IU/ml of recombinant interleukin 2. Cells:
Lymphocytes isolated from fresh donor blood by means of Ficol® gradient centrifugation are cultured, with addition of […] of phytohemagglutinin (Wellcome) in the complete medium at 37° C. under 5% of CO2 for 36 hours. After addition of 10% of dimethyl sulfoxide, the cells are frozen at a cell density of 5×10^6 and stored in liquid nitrogen. For the experiment, the cells are thawed, washed in RPMI medium and cultured in the complete medium for 3-4 days.
The test preparations were dissolved in dimethyl sulfoxide in a concentration of 16.7 mg/ml and diluted to 1 mg/ml in complete medium.
0.4 ml of medium was initially introduced into 24-well multiwell dishes. After addition of 0.1 ml of the dissolved preparation into the upper row of the dish, a geometric dilution series was produced by transferring in each case 0.1 ml. Preparation-free controls always contained 0.4 ml of complete medium with 0.5% of dimethyl sulfoxide.
Lymphocyte cultures having a cell count of 5×10^5 cells/ml were infected by addition of 1/50 of the volume of supernatant from HIV-infected lymphocyte cultures. The titer of these culture supernatants was determined by end point dilution with 1-5×10^6 infectious units/ml. After incubation at 37° C. for 30 minutes, the infected lymphocytes were centrifuged off and taken up again in the same volume of medium. In each case 0.6 ml of this cell suspension was introduced into each of the depression walls of the test plate. The batches were incubated at 37° C. for 3 days.
The infected cell cultures were examined under the microscope for the presence of giant cells, which indicate active multiplication of the virus in the culture. The lowest concentration of preparation at which no giant cells occurred was determined as the inhibitory concentration against HIV. As a control, the supernatants from the culture plates were investigated for the presence of the HIV antigen with the aid of an HIV antigen test in accordance with the manufacturer's information (Organon).

Molecule: CCC1C(=N)c2cc(Cl)ccc2NC1=S (stereo not drawn) [Example 42]
IC50 [1]: 4190 to 41900 nM

Molecule: CSCCON=C1c2cc(Cl)ccc2NC(=S)C1(C)C [Example 50]
IC50 [1]: 30.4 to 304 nM | MIC (HIV): 0.2 µg/mL (≈ 0.608 µM)

Molecule: CCON=C1c2cc(Cl)ccc2NC(=O)C1(C)C [Example 2, anti-6-Chloro-3,3-dimethyl-4-(ethyloxyimino)-1,3-dihydroquinolin-2-one]
IC50 [1]: 82.5 nM | MIC (HIV): 0.2 µg/mL (≈ 0.75 µM)

Molecule: CCC1C(=O)Nc2ccc(Cl)cc2C1=NOC(C)C (stereo not drawn) [Example 40]
IC50 [1]: 35.6 to 356 nM

Molecule: CCON=C1c2cc(Cl)ccc2N=C(Nc2ccc(Cl)cc2)C1(C)C [Example 132]
IC50 [1]: ~266 nM

Molecule: CCON=C1c2cc(Cc3ccncc3)ccc2NC(=S)C1(C)C [Example 104]
IC50 [1]: ~29.5 nM | MIC (HIV): 0.04 µg/mL (≈ 0.118 µM)

Molecule: CCON=C1c2cc(Cl)ccc2NC(=NO)C1(C)C [Example 70, anti-6-Chloro-3,3,-dimethyl-4-(ethyloxyimino)-2-hydroxyimino-1,3-dihydroquinoline]
IC50 [1]: 3.55 to 35.5 nM

MIC (HIV): 0.008 µg/mL (≈ 0.0259 µM)
Molecule: CCON=C1c2cc(Cl)ccc2NC(=S)C12CCCC2 [Example 122]

Molecule: CCON=C1c2cc(Cl)ccc2N=C(Nc2ccccc2)C1(C)C [Example 131]
IC50 [1]: 29.3 to 293 nM | MIC (HIV): 1 µg/mL (≈ 2.93 µM)

Molecule: CC(C)ON=C1c2cc(Cl)ccc2NC(=S)C12CCC2 [Example 120]
IC50 [1]: 3.24 to 32.4 nM

Molecule: CCON=C1c2cc(Cl)ccc2NC(=O)C1(C)C [Example 4, syn-6-Chloro-3,3-dimethyl-4-(ethyloxyimino)-l,3-dihydroquinolin-2-one]
IC50 [1]: 37.5 to 375 nM

Molecule: CCON=C1c2cc(Cl)ccc2NC(=S)C12CCC2 [Example 115]
IC50 [1]: 3.39 to 33.9 nM | MIC (HIV): 0.04 µg/mL (≈ 0.136 µM)

Molecule: CCC1(CC)C(=O)Nc2ccc(Cl)cc2C1=NOC(C)C [Example 119]
IC50 [1]: 3.24 to 32.4 nM | MIC (HIV): 0.008 µg/mL (≈ 0.0259 µM)

Molecule: CC(C)ON=C1c2cc(OC(F)(F)F)ccc2NC(=S)C1(C)C [Example 87]
IC50 [1]: 28.9 to 289 nM | MIC (HIV): 0.04 µg/mL (≈ 0.115 µM)

Molecule: CCON=C1c2cc(Cl)ccc2NC(=S)C1(C)C [Example 3, anti-6-Chloro-3,3-dimethyl-4-(ethyloxyimino)-l,3-dihydroquinoline-2-thione]
IC50 [1]: 14.1 nM | MIC (HIV): 0.008 µg/mL (≈ 0.0283 µM)

Molecule: CSCCON=C1c2cc(Cl)ccc2NC(=O)C1(C)C [Example 49]
IC50 [1]: 320 to 3200 nM

Molecule: CC1(C)C(=S)Nc2ccc(Cl)cc2C1=NOCc1ccc(Cl)cc1 [Example 27]
IC50 [1]: 2640 to 26400 nM

Molecule: CCON=C1c2cc(Cl)ccc2NC(=O)C1CC (stereo not drawn) [Example 39]
IC50 [1]: 37.5 to 375 nM | MIC (HIV): 1 µg/mL (≈ 3.75 µM)

Molecule: COc1ccc2c(c1)C(=NOC(C)C)C(C)(C)C(=O)N2 [Example 44]
IC50 [1]: ~36.2 nM

Molecule: CC1(C)C(=S)Nc2ccc(Cl)cc2C1=NOCc1ccccc1[N+](=O)[O-] [Example 21]
IC50 [1]: 256 to 2560 nM

Molecule: CCON=C1c2cc(Cl)ccc2NC(=O)C12CCC2 [Example 114]
IC50 [1]: 21.5 nM

Molecule: CC(C)ON=C1c2cc(Cl)ccc2NC(=S)C1(C)C [Example 7, anti-6-Chloro-3,3-dimethyl-4-(isopropyloxyimino)-l,3-dihydroquinoline-2-thione]
IC50 [1]: 20.2 nM | MIC (HIV): 0.008 µg/mL (≈ 0.027 µM)

Molecule: CCON=C1c2cc(OC)ccc2NC(=S)C1(C)C [Example 43]
IC50 [1]: 3.59 to 35.9 nM

Molecule: CC1(C)C(=O)Nc2ccc(Cl)cc2C1=NOCc1ccccc1 [Example 10A, anti-4-(Benzyloxyimino)-6-chloro-3,3-dimethyl-1,3-dihydroquinolin-2-one]
IC50 [1]: > 30400 nM

Molecule: CC(C)ON=C1c2cc(Cl)ccc2NC(=O)C1(C)C [Example 6, anti-6-Chloro-3,3-dimethyl-4-(isopropyloxyimino)-l,3dihydroquinolin-2-one]
IC50 [1]: 3.56 to 35.6 nM | MIC (HIV): 0.008 µg/mL (≈ 0.0285 µM)

Molecule: CON=C1c2cc(Cl)ccc2NC(=O)C1(C)C [Example 34]
IC50 [1]: 39.6 to 396 nM

Molecule: CC(C)ON=C1c2cc(Cl)ccc2NC(=S)C12CCCC2 [Example 117]
IC50 [1]: 3.1 to 31 nM

Molecule: CC1(C)C(=O)Nc2ccc(Cl)cc2C1=NOCc1ccccc1[N+](=O)[O-] [Example 20]
IC50 [1]: 2680 to 26800 nM

Molecule: CON=C1c2cc(Cl)ccc2NC(=S)C1(C)C [Example 35]
IC50 [1]: 3.72 to 37.2 nM

Molecule: CCC(C)ON=C1c2cc(Cl)ccc2NC(=O)C1(C)C (stereo not drawn) [Example 52]
IC50 [1]: 33.9 to 339 nM

Molecule: CCON=C1c2cc(OCC)ccc2NC(=NO)C1(C)C [Example 124]
IC50 [1]: ~343 nM | MIC (HIV): 0.4 µg/mL (≈ 1.37 µM)

Molecule: C=CCON=C1c2cc(Cl)ccc2NC(=O)C1(C)C [Example 47]
IC50 [1]: 35.9 to 359 nM

Molecule: CCCON=C1c2cc(Cl)ccc2NC(=S)C1(C)C [Example 9, anti-6-Chloro-3,3-dimethyl-4-(n-propyloxyimino)-1,3dihydroquinoline-2-thion]
IC50 [1]: 3.37 to 33.7 nM | MIC (HIV): 0.04 µg/mL (≈ 0.135 µM)

Molecule: C#CCON=C1c2cc(Cl)ccc2NC(=O)C1(C)C [Example 51]
IC50 [1]: 36.1 to 361 nM

Molecule: CCON=C1c2cc(Cl)ccc2NC(=S)C1(C)C [Example 5, syn-6-Chloro-3,3-dimethyl-4-(ethyloxyimino)-1,3-dihydroquinoline-2-thione]
Reverse transcriptase assay IC50 [1]: 0.001 to 0.01 µg/mL

Molecule: COCCON=C1c2cc(Cl)ccc2NC(=O)C1(C)C [Example 32]
IC50 [1]: 337 to 3370 nM | MIC (HIV): 1 µg/mL (≈ 3.37 µM)

Molecule: CC1(C)C(=O)Nc2ccc(Cl)cc2C1=NOCc1cccc(Cl)c1 [Example 23]
IC50 [1]: 275 to 2750 nM

Molecule: CC1(C)C(=O)Nc2ccc(Cl)cc2C1=NOCc1ccccc1Cl [Example 29]
IC50 [1]: 2750 to 27500 nM

Molecule: CC1(C)C(=S)Nc2ccc(Cl)cc2C1=NOCc1cccc(Cl)c1 [Example 24]
IC50 [1]: 26.4 to 264 nM

Molecule: CCC1C(=O)Nc2ccc(Cl)cc2C1=NO (stereo not drawn) [Example 38]
IC50 [1]: 4190 to 41900 nM

Molecule: CC1(C)C(=S)Nc2ccc(Cl)cc2C1=NOCc1ccccc1 [Example 16]
IC50 [1]: 290 to 2900 nM

Molecule: CSc1ccc2c(c1)C(=NOC(C)C)C(C)(C)C(=S)N2 [Example 82]
IC50 [1]: 32.4 to 324 nM | MIC (HIV): < 0.08 µg/mL

Molecule: CCON=C1c2cc(Cc3ccncc3)ccc2NC(=O)C1(C)C [Example 103]
IC50 [1]: 30.9 to 309 nM | MIC (HIV): 0.04 µg/mL (≈ 0.124 µM)

Molecule: CC1(C)C(=S)Nc2ccc(Cl)cc2C1=NOCc1ccccc1Cl [Example 30]
IC50 [1]: 264 to 2640 nM

Molecule: CSc1ccc2c(c1)C(=NOC(C)C)C(C)(C)C(=O)N2 [Example 78]
IC50 [1]: 34.2 to 342 nM

Molecule: COc1ccc2c(c1)C(=NOC(C)C)C(C)(C)C(=S)N2 [Example 45]
IC50 [1]: 3.42 to 34.2 nM

Molecule: C=CCON=C1c2cc(Cl)ccc2NC(=S)C1(C)C [Example 48]
IC50 [1]: 3.39 to 33.9 nM | MIC (HIV): 0.04 µg/mL (≈ 0.136 µM)

Molecule: CC1(C)C(=O)N(Cc2ccccc2)c2ccc(Cl)cc2C1=NOCc1ccccc1 [Example 10B, anti-(1-Benzyl)-4-(benzyloxyimino)-6-chloro-3,3-dimethyl-1,3-dihydroquinolin-2-one]
IC50 [1]: > 23900 nM

Molecule: CCCON=C1c2cc(Cl)ccc2NC(=O)C1(C)C [Example 8, anti-6-Chloro-3,3-dimethyl-4-(n-propyloxyimino)-l,3-dihydroquinolin-2-one]
IC50 [1]: 35.6 to 356 nM | MIC (HIV): 0.2 µg/mL (≈ 0.712 µM)

Molecule: CCC(C)ON=C1c2cc(Cl)ccc2NC(=S)C1(C)C (stereo not drawn) [Example 67]
IC50 [1]: 32.2 to 322 nM | MIC (HIV): 0.04 µg/mL (≈ 0.129 µM)

Molecule: COCCON=C1c2cc(Cl)ccc2NC(=S)C1(C)C [Example 33]
IC50 [1]: ~32 nM | MIC (HIV): 0.2 µg/mL (≈ 0.639 µM)

Molecule: CC(C)=NN=C1c2cc(Cl)ccc2NC(=S)C1(C)C [Example 62]
IC50 [1]: 3.4 to 34 nM | MIC (HIV): 0.04 µg/mL (≈ 0.136 µM)

Molecule: anti-6-Chloro-3,3-dimethyl-4-(isopropylazino)-1,3-dihydroquinolin-2-one [Example 12]
Reverse transcriptase assay IC50 [1]: 0.01 to 0.1 µg/mL

Molecule: CC(C)ON=C1c2cc(Cl)ccc2NC(=O)C12CCCC2 [Example 123]
IC50 [1]: 3.26 to 32.6 nM
